Measured values reported in patent US9675539B2, “Cosmetic and pharmaceutical compositions and methods using 2-decarboxy-2-phosphinico derivatives” (Duke University, priority 2000, dated 2017).

Biological target: hFP receptor (Homo sapiens (Human), UniProt P43088)
Test: Radioligand Binding Assay
Conditions: competition with 5 nM (3H) PGF2α on hFP membranes from transfected COS-7 cells; read-out: IC50 the PGF
Protocol: IC50 of a prostaglandin can be determined relative to PGF2α using the Radioligand Binding Assay.
In this assay, COS-7 cells are transiently transfected with the hFP recombinant plasmid using LipofectAMINE Reagent. Forty-eight hours later, the transfected cells are washed with Hank's Balanced Salt Solution (HBSS, without CaCl2, MgCl2, MgSO4, or phenol red). The cells are detached with versene, and HBSS is added. The mixture is centrifuged at 200 g for 10 minutes, at 4° C. to pellet the cells. The pellet is resuspended in Phosphate-Buffered Saline-EDTA buffer (PBS; 1 mM EDTA; pH 7.4; 4° C.). […] The mixture is centrifuged at 1000 g for 10 minutes at 4° C. The supernatant is centrifuged at 100,000 g for 60 minutes at 4° C. The pellet is resuspended to 1 mg protein/mL TME buffer (50 mM Tris; 10 mM MgCl2; 0.1 mM EDTA; pH 6.0; 4° C.) based on protein levels measured using the Pierce BCA Protein Assay kit. […] The membrane preparations are then stored at −80° C., until thawed for assay use.
The receptor competition binding assays are developed in a 96 well format. Each well contains 100 g of hFP membrane, 5 nM (3 H) PGF2α, and the various competing compounds in a total volume of 200 L. The plates are incubated at 23° C. for 1 hour. […] The plates are read on a Packard TOPCOUNT® Microplate Scintillation Counter (also available from Packard Instrument Co., Inc.)

Chain of hFP receptor (P43088 whole entry): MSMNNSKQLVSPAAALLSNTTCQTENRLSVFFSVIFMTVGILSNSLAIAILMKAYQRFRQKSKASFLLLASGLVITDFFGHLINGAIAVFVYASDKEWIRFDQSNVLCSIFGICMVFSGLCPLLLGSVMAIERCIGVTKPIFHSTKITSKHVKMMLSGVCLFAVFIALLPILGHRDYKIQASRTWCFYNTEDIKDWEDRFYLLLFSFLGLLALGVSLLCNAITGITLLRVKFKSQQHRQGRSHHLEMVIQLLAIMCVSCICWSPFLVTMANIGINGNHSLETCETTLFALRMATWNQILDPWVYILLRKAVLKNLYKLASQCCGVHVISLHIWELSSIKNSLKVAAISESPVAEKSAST

CCCCCC(O)/C=C/[C@@H]1[C@@H](C/C=C\CCC[PH](=O)O)[C@@H](O)C[C@H]1O (stereo partly shown) [Example 1-2]
IC50: 114 nM
